Laboratory results published in the supplement of paper PMC11061612.

Tests used:
Experiment in all cases: combination Emax (second highest fraction inhibited in the dose matrix, 72 h); higher = more inhibition; extreme values may be limits of the assay
[1] = system: NCI-H1838 (Lung Adenocarcinoma)
Procedure, shortened: (§1)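 After 24 hours at 37°C and 5% CO2 in 1536-well plates, cells in DMEM/F12 or RPMI plus 10% FBS received two-drug dose matrices for 72 hours. Viability came from CellTiter-Glo 2.0 luminescence and was scaled as inhibition, anchored at 0 by vehicle wells and at 1 by blank wells. Combination Emax is taken as the second-highest inhibition in the matrix, and Bliss excess as the observed combination effect less EA + EB − EA·EB, with EA and EB the single-agent effects.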

[2] = system: EJM (Plasma Cell Myeloma)
Procedure, shortened: as §1

[3] = system: SNU-387 (Hepatocellular Carcinoma)
Procedure, shortened: as §1

[4] = system: EFO-21 (Ovarian Carcinoma)
Procedure, shortened: as §1

EW-1 (Ewing's Sarcoma) = system: EW-1 (Ewing's Sarcoma)
Procedure, shortened: as §1

[5] = system: ML-2 (Acute Myeloid Leukemia)
Procedure, shortened: as §1

[6] = system: SW982 (Other Solid Carcinomas)
Procedure, shortened: as §1

[7] = system: MOLT-4 (T-Lymphoblastic Leukemia)
Procedure, shortened: as §1

[8] = system: KOPN-8 (B-Lymphoblastic Leukemia)
Procedure, shortened: as §1

[9] = system: G-401 (Other Solid Carcinomas)
Procedure, shortened: as §1

[10] = system: KGN (Other Solid Carcinomas)
Procedure, shortened: as §1

[11] = system: KMRC-1 (Kidney Carcinoma)
Procedure, shortened: as §1

[12] = system: HAL-01 (B-Lymphoblastic Leukemia)
Procedure, shortened: as §1

[13] = system: HCC1500 (Breast Carcinoma)
Procedure, shortened: as §1

[14] = system: Ca-Ski (Cervical Carcinoma)
Procedure, shortened: as §1

[15] = system: ME-180 (Cervical Carcinoma)
Procedure, shortened: as §1

COLO-679 (Melanoma) = system: COLO-679 (Melanoma)
Procedure, shortened: as §1

[16] = system: NCI-H650 (Lung Adenocarcinoma)
Procedure, shortened: as §1

[17] = system: MV-4-11 (Acute Myeloid Leukemia)
Procedure, shortened: as §1

[18] = system: Mo-T (Other Blood Carcinomas)
Procedure, shortened: as §1

Row | SMILES | combination Emax [1] | combination Emax [2] | combination Emax [3] | combination Emax [4] | combination Emax (EW-1 (Ewing's Sarcoma)) | combination Emax [5] | combination Emax [6] | combination Emax [7] | combination Emax [8] | combination Emax [9] | combination Emax [10] | combination Emax [11] | combination Emax [12] | combination Emax [13] | combination Emax [14] | combination Emax [15] | combination Emax (COLO-679 (Melanoma)) | combination Emax [16] | combination Emax [17] | combination Emax [18]
1 | COc1nnc2ccc(N3CCC(c4ccc(OCCN5CCN(C)C(=O)[C@H]5C)cc4)CC3)nn12 [AZD5153] + Cn1cnc2c(F)c(Nc3ccc(Br)cc3Cl)c(C(=O)NOCCO)cc21 [Selumetinib] (first compound max 1 µM, 7x7, partner max 10 µM) | 0.394 | 0.619 | 0.514 | 0.439 | 0.618 | 1 | 0.789 | 0.162 | 1 | 0.841 | 0.729 | 0.346 | 0.849 | 0.387 | 0.813 | 0.592 | 0.884 | 0.656 | 1 | 0.659
2 | Cn1cnc2c(F)c(Nc3ccc(Br)cc3Cl)c(C(=O)NOCCO)cc21 [Selumetinib] + C[C@@H]1COCCN1C2=NC(=NC(=C2)C3(CC3)[S@](=N)(=O)C)C4=C5C=CNC5=NC=C4 [AZD6738] (first compound max 10 µM, 7x7, partner max 10 µM) | 0.374 | 0.855 | 0.454 | 0.255 | 0.892 | 0.982 | 0.593 | 0.991 | 1 | 0.684 | 0.808 | 0.373 | 0.976 | 0.183 | 0.638 | 0.465 | 0.82 | 0.619 | 0.97 | 0.362
3 | C=CCn1c(=O)c2cnc(Nc3ccc(N4CCN(C)CC4)cc3)nc2n1-c1cccc(C(C)(C)O)n1 [AZD1775] + C[C@@H]1COCCN1C2=NC(=NC(=C2)C3(CC3)[S@](=N)(=O)C)C4=C5C=CNC5=NC=C4 [AZD6738] (first compound max 1 µM, partner max 10 µM) | 0.733 | 0.904 | 0.7 | 0.543 | 0.935 | 1 | 0.807 | 1 | 0.965 | 0.793 | 0.922 | 0.669 | 1 | 0.382 | 0.869 | 0.802 | 0.723 | 0.329 | 0.991 | 0.61
4 | COc1nnc2ccc(N3CCC(c4ccc(OCCN5CCN(C)C(=O)[C@H]5C)cc4)CC3)nn12 [AZD5153] + C[C@@H]1COCCN1C2=NC(=NC(=C2)C3(CC3)[S@](=N)(=O)C)C4=C5C=CNC5=NC=C4 [AZD6738] (first compound max 1 µM, 7x7, partner max 10 µM) | 0.441 | 0.867 | 0.524 | 0.488 | 0.953 | 1 | 0.843 | 0.999 | 1 | 0.924 | 0.822 | 0.456 | 0.965 | 0.454 | 0.794 | 0.696 | 0.718 | 0.51 | 1 | 0.746
5 | Cc1c2c(nn1C)CSCc1cc(n(C)n1)CSc1cc(c3ccccc3c1)OCCCc1c(C(=O)O)n(C)c3c-2c(Cl)ccc13 [AZD5991] + C=CCn1c(=O)c2cnc(Nc3ccc(N4CCN(C)CC4)cc3)nc2n1-c1cccc(C(C)(C)O)n1 [AZD1775] (first compound max 1 µM, partner max 1 µM) | 0.835 | 1 | 0.581 | 0.552 | 0.974 | 1 | 0.798 | 1 | 0.998 | 0.901 | 0.725 | 0.275 | 0.907 | 0.49 | 0.816 | 0.52 | 0.529 | 0.748 | 1 | 0.562
6 | CC1(C)CCC(CN2CCN(c3ccc(C(=O)NS(=O)(=O)c4ccc(NCC5CCOCC5)c([N+](=O)[O-])c4)c(Oc4cnc5[nH]ccc5c4)c3)CC2)=C(c2ccc(Cl)cc2)C1 [Venetoclax] + Cn1cnc2c(F)c(Nc3ccc(Br)cc3Cl)c(C(=O)NOCCO)cc21 [Selumetinib] (first compound max 1 µM, 7x7, partner max 3 µM) | 0.165 | 0.0906 | 0.295 | 0.264 | 0.238 | 1 | 0.242 | 0.451 | 0.971 | 0.33 | 0.246 | 0.135 | 0.97 | 0.612 | 0.219 | 0.256 | 0.737 | 0.239 | 1 | 0.618
7 | COc1cccc(OCCCN)c1-c1cc(Nc2cnc(C#N)cn2)n[nH]1 [Prexasertib] + CN(C)CCCOc1ccc(-c2ccc3ncc4c(c3c2)n(C2CCOCC2)c(=O)n4C)cn1 [AZD0156] (first compound max 1 µM, 7x7, partner max 1 µM) | 0.598 | 0.93 | 0.531 | 0.731 | 0.958 | 1 | 0.759 | 1 | 0.947 | 0.626 | 0.753 | 0.558 | 1 | 0.348 | 0.741 | 0.324 | 0.871 | 0.671 | 0.998 | 0.392
8 | Cc1c2c(nn1C)CSCc1cc(n(C)n1)CSc1cc(c3ccccc3c1)OCCCc1c(C(=O)O)n(C)c3c-2c(Cl)ccc13 [AZD5991] + C[C@@H]1COCCN1C2=NC(=NC(=C2)C3(CC3)[S@](=N)(=O)C)C4=C5C=CNC5=NC=C4 [AZD6738] (first compound max 1 µM, 7x7, partner max 10 µM) | 0.72 | 1 | 0.638 | 0.484 | 0.965 | 1 | 0.748 | 1 | 0.998 | 0.828 | 0.772 | 0.549 | 0.987 | 0.781 | 0.717 | 0.485 | 0.674 | 0.352 | 1 | 0.483
9 | CC1(C)CCC(CN2CCN(c3ccc(C(=O)NS(=O)(=O)c4ccc(NCC5CCOCC5)c([N+](=O)[O-])c4)c(Oc4cnc5[nH]ccc5c4)c3)CC2)=C(c2ccc(Cl)cc2)C1 [Venetoclax] + C1CN(CCC1(C(=O)N[C@@H](CCO)C2=CC=C(C=C2)Cl)N)C3=NC=NC4=C3C=CN4 [Capivasertib] (first compound max 1 µM, 7x7, partner max 3 µM) | 0.283 | 0.255 | 0.23 | 0.222 | 0.365 | 0.933 | 0.256 | 0.718 | 0.824 | 0.518 | 0.389 | 0.368 | 0.916 | 0.704 | 0.415 | 0.517 | 0.146 | 0.143 | 1 | 0.604
10 | Cc1c2c(nn1C)CSCc1cc(n(C)n1)CSc1cc(c3ccccc3c1)OCCCc1c(C(=O)O)n(C)c3c-2c(Cl)ccc13 [AZD5991] + C[C@@H](Nc1cc(F)cc(F)c1)c1cc(C(=O)N(C)C)cc2c(=O)cc(N3CCOCC3)oc12 [AZD8186] (first compound max 1 µM, 7x7, partner max 3 µM) | 0.472 | 0.929 | 0.41 | 0.337 | 0.367 | 1 | 0.443 | 0.526 | 0.915 | 0.612 | 0.443 | 0.639 | 0.734 | 0.426 | 0.556 | 0.217 | 0.332 | 0.22 | 1 | 0.319
11 | CN(C)CCCOc1ccc(-c2ccc3ncc4c(c3c2)n(C2CCOCC2)c(=O)n4C)cn1 [AZD0156] + CCN(CCO)CCCOc1ccc2c(Nc3cc(CC(=O)Nc4cccc(F)c4)[nH]n3)ncnc2c1 [AZD2811] (first compound max 1 µM, 7x7, partner max 1 µM) | 0.263 | 0.0982 | 0.207 | 0.116 | 0.301 | 0.878 | 0.548 | 0.968 | 0.554 | 0.309 | 0.551 | 0.13 | 0.435 | 0.298 | 0.274 | 0.192 | 0.159 | 0.124 | 0.93 | 0.137
12 | C[C@@H]1COCCN1c1cc(C2([S@](C)(=N)=O)CC2)nc(-c2ccnc3[nH]ccc23)n1 [AZD6738] + O=C(c1cc(Cc2n[nH]c(=O)c3ccccc23)ccc1F)N1CCN(C(=O)C2CC2)CC1 [Olaparib] (first compound max 10 µM, 7x7, partner max 10 µM) | 0.542 | 0.899 | 0.575 | 0.412 | 0.898 | 0.955 | 0.781 | 1 | 0.876 | 0.491 | 0.828 | 0.566 | 0.982 | 0.341 | 0.647 | 0.425 | 0.661 | 0.193 | 0.985 | 0.552
13 | Cn1cnc2c(F)c(Nc3ccc(Br)cc3Cl)c(C(=O)NOCCO)cc21 [Selumetinib] + CCN(CCO)CCCOc1ccc2c(Nc3cc(CC(=O)Nc4cccc(F)c4)[nH]n3)ncnc2c1 [AZD2811] (first compound max 10 µM, 7x7, partner max 1 µM) | 0.322 | 0.175 | 0.319 | 0.212 | 0.391 | 1 | 0.594 | 0.992 | 1 | 0.561 | 0.514 | 0.233 | 0.441 | 0.157 | 0.54 | 0.245 | 0.815 | 0.387 | 0.974 | 0.238
